“Also recorded” adds a separate entry of the source. Read-outs that look alike come from different tables or passages of the source.
Legend:
[1] = test system: immunized anti-β1-positive cardiomyopathic rats; test: Treatment of immune-cardiomyopathy in the human analogue rat model (therapy study); type: in vivo, Lewis CrlBR rats; details: for biological efficiency (reversal of the cardiomyopathic phenotype) / regression of LV dilatation: echocardiography; for biological efficiency (reversal of the cardiomyopathic phenotype): FIGS. 10d and 11d; for regression of LV dilatation: therapy study; for progression of the disease monitored by echocardiography: within the 12 months of treatment, compared with untreated antibody positive animals, FIGS. 10 and 11
[2] = test system: immunized anti-β1-positive cardiomyopathic rats; test: as above; type: in vivo, Lewis CrlBR rats; details: therapy every 4 weeks after 8 months of immunization; FIGS. 8a and 8b
From the text: Lewis CrlBR rats were used as animals. […] Therapy was started after 8 months of regular (1× monthly) immunization. Monthly immunization was continued under therapy.
FIG. 8b is a diagram comparing the titer course of specific anti-ECII antibodies dependent on the different peptide variants used in the therapy arm of the study, whereby 25AA means the cyclic peptide Ic, 18AA means the shorter 18 amino-acid variant, and 16AA the shorter 16 amino-acid variant of the peptide. “Beta1 untreated” means immunized anti-1-positive cardiomyopathic not treated animals, “Beta1/pept. […] ECII-25AA, ECII-18AA, ECII-16AA” means immunized anti-1-positive cardiomyopathic animals treated with the 25AA-, 18AA-, or 16AA-peptide, respectively.
[…]. In general, the number of amino acids and thus the length of the primary structure appears to be crucial for the biological effects of the peptides of the present invention. A peptide-length equal to or above 26 amino acids (primary structure) is thought to be capable of stimulating directly (that is, without the use of carrier proteins) immunocompetent T-cells and thus provoke a paradoxal increase in anti-β1-receptor antibody production through T-cell mediated B-cell stimulation. Therefore, in the frame of the therapy study a limited number of pilot animals was treated with shorter peptide-variants of the 25 amino-acid peptide Ic, i.e. variants comprising either 18 or 16 amino-acids of the cyclic peptide. The used constructs were: ECII-18AA, cyclo([…] (SEQ ID NO:1); and ECII-16AA, cyclo([…] (SEQ ID NO.2). Upon administration of shorter peptide-variants of the present invention peptide every 4 weeks, a rapid decrease in the specific anti-beta 1-ECII antibody titer was equally observed within the first 6 months of therapy.

CD4+ T-cells = test: T-cell recall assay with CD4+ T-cells from immunized animals (FIG. 19); type: cell-based, rat; details: T-cells from prophylactically or therapeutically treated immunized animals; peptide 10 μg/ml, FP 1.0 or 0.1 μg/mL
Method: “Cont.” means the respective not immunized control animals. The assays were carried out according to Schmidt J. et al. (2003) J Neuroimmunol. 140, 143-152. In brief, to purify CD4+ T-cells from the splenic cell preparations, B-cells and CD8+ T-cells were depleted by commercially available magnetic beads (MACS®), yielding a purity of CD4+ cells >85%. 1×10^5 CD4+ of the purified T-cells were then co-incubated in 96-well plates with 1×10^6 irradiated thymic antigen presenting cells (prepared from a younger rat). Reagents added in the different assays (conditions) were: 10 μg/ml glutathion-S-transferase (GST), 2 μg/ml Concanavalin A (ConA, positive control), 10 μg/ml 25AA-ECII peptide (Pept.25AA), and GST/beta1-ECII fusion protein (FP) at a concentration of 1.0 and 0.1 μg/ml, respectively. The measured T-cell reactivities were normalized to the respective T-cell reactivities obtained with 10 μg/ml purified protein derivative (PPD) carried out in parallel under each condition. After 48 hours of incubation, 50% of the supernatants were removed and replaced by fresh medium. The cells were then pulsed with 1.25 μCi/well [^3H]-thymidine and further incubated for 16 hours before the cells were harvested, and the DNA-incorporated radioactivity was measured using a beta-plate.

[3] = test system: rats immunized against the second β1-receptor loop (β1-ECII); details: rat, in vivo
[4] = test system: rats immunized against the second β1-receptor loop (β1-ECII); test: Prevention of immune-cardiomyopathy in the human analogue rat model

Compound | biological efficiency (reversal of the cardiomyopathic phenotype) [1] | regression of LV dilatation [1] | circulating specific anti-β1-ECII antibody titer [2] | progression of the disease monitored by echocardiography [1] | stimulation and proliferation of CD4+ T-cells (CD4+ T-cells) | heart rate [3] | specific anti-β1-ECII antibody-titer ([4]; 1 mg/kg s.c. or i.v. every 4 weeks, prophylactic, FIG. 4) | immune response upon antigen boost every 4 weeks ([4]; from the fifth month on, FIG. 4) | cardiac β1-receptor density (down-/upregulation) ([1]; FIGS. 17 and 18 (prevention and therapy study)) | impact on heart rate and blood pressure ([4]; FIG. 12 and FIG. 13, examples 3 and 4 (prevention and therapy study)) | heart rate ([4]; prophylactic treatment, FIGS. 5 and 12)
cyclo(Ala-Asp-Glu-Ala-Arg-Arg-Cys-Tyr-Asn-Asp-Pro-Lys-Cys-Cys-Asp-Phe-Val-Gln) (cyclo(ADEARRCYNDPKCCDFVQ); not fully specified; printed as cyclo(Ala-Asp-Glu-Ala-Arg-Arg-Cys-Tyr-Asn-Asp-Pro-Lys-Cys-Cys-Asp-Phe-Val-Gln); cysteine pairing not given here) [ECII-18AA] | reversal of the cardiomyopathic phenotype | significant regression of LV dilatation | reduced by about a same extent |  |  |  |  |  |  |  | 
cyclo(Ala-Arg-Arg-Cys-Tyr-Asn-Asp-Pro-Lys-Cys-Cys-Asp-Phe-Val-Tyr-Gln) (cyclo(ARRCYNDPKCCDFVYQ); not fully specified; printed as cyclo(Ala-Arg-Arg-Cys-Tyr-Asn-Asp-Pro-Lys-Cys-Cys-Asp-Phe-Val-Tyr-Gln); cysteine pairing not given here) [ECII-16AA] | ambiguous results in 2 treated rats with one animal having complete reversal of the cardiomyopathic phenotype, the other animal progressive LV dilatation and dysfunction | obviously being less effective | remain stable instead of decreasing | at least the progression of the disease was stopped or stabilized |  |  |  |  |  |  | 
cyclo(Ala-Arg-Ala-Glu-Ser-Asp-Glu-Ala-Arg-Arg-Cys-Tyr-Asn-Asp-Pro-Lys-Cys-Cys-Asp-Phe-Val-Thr-Asn-Arg-Gln) (cyclo(ARAESDEARRCYNDPKCCDFVTNRQ); not fully specified; printed as cyclo(Ala-Arg-Ala-Glu-Ser-Asp-Glu-Ala-Arg-Arg-Cys-Tyr-Asn-Asp-Pro-Lys-Cys-Cys-Asp-Phe-Val-Thr-Asn-Arg-Gln); cysteine pairing not given here) [peptide Ic] | reversal of the cardiomyopathic phenotype | significant regression of LV dilatation | surprisingly rapid decrease; also recorded: reduced by about a same extent | no progression | neither treatment group resulted in a significant stimulation | did neither decrease heart rate | prevented a further increase of the specific anti-β1-ECII antibody-titer with the titer even continuously declining | no more immune response |  |  | 
CC(C)NCC(O)COc1ccc(COCCOC(C)C)cc1 (stereo not drawn) [bisoprolol, reference compound] |  | could not be reversed completely | had even higher beta1-antibody titers | no progression |  |  |  |  | β1-receptor upregulation | significantly reduced both heart rate and blood pressure | significant reduction in heart rate
